Data reported in US20070155764A1, “NOVEL SUBSTITUTED PYRIMIDINYLOXY UREAS USEFUL AS INHIBITORS OF PROTEIN KINASES” (KALYPSYS, INC., priority 2005, published 2007).

Assays:
Type in all cases: biochemical
[1] = molecular target: T1, human B-Raf protein kinase (Homo sapiens, UniProt P15056); assay: In vitro B-Raf/Mek1 composite kinase assay; settings: recombinant GST-tagged human B-Raf (Δ1-415) with inactive Mek1, 2 μM ATP
T1 construct: GST (N); purchased Upstate Inc. 14-530 (B-Raf); 14-420 (Mek1)
Method: In Vitro B-Raf/Mek1 Composite Kinase Assay
2.5 μl of B-Raf kinase buffer (20 mM MOPS [pH 7.2], 25 mM sodium glycerophosphate, 2 mM EGTA [pH 8.0], 1 mM sodium orthovanadate, 1 mM dithiothreitol, 10 mM MgCl2, 0.03% Brij-35, 0.3 mg/ml bovine serum albumin) containing 1 ng of recombinant, N-terminal GST-tagged human B-Raf protein kinase (Δ1-415, Upstate Inc., cat. #14-530) is dispensed to wells of a 1536 multi-well white solid plate. 60 nl of 100× concentration of test compound in DMSO is dispensed to the well by passive pin transfer and incubated for 15 minutes at room temperature (approx. 22° C.). […] The assay plates are sealed and maintained in a humidified environment. After 2 hours, 2.5 μl of PKLight protein kinase assay reagent (Cambrex, cat. #LT07-501) is dispensed. After an additional 5 minute incubation at room temperature, luminescence activity is measured on a Molecular Devices Analyst multi-mode plate reader or other suitable plate reader. Kinase inhibition results in less ATP depletion, and therefore increased luminescence signal. Negative control activity is measured with DMSO lacking any test compound. The positive control is [N-(3-trifluoromethyl-4-chlorophenyl)-N′-(4-(2-methylcarbamoyl-pyridin-4-yl)oxyphenyl)urea], aka Bay 43-9006. Efficacy is measured as a percentage of positive control activity.

[2] = molecular target: T2, PDGFRβ kinase (Homo sapiens, UniProt P09619); assay: In vitro PDGFRβ kinase assay; settings: ADP Quest assay, poly Glu:Tyr substrate, 60 μM ATP
T2 construct: purchased Invitrogen Inc. P3082
Method: (§1) In vitro vegfr2 and PDGFRβ Kinase Assays
(§2) 2.5 μl of ADP Quest assay buffer (DiscoverX Inc., cat. #90-0071) containing 20 ng VEGFR2 kinase (Invitrogen Inc, cat. #PV3660) or 25 ng PDGFRβ kinase (Invitrogen Inc., cat. #P3082) is dispensed to wells of a 1536 multi-well, black solid plate. 60 nl of 100× concentration of test compound in DMSO is dispensed to the well by passive pin transfer and incubated for 10 minutes at room temperature (approx. 22° C.). 2.5 μl of ADP Quest assay buffer containing 0.25 μg of poly Glu:Tyr (4:1) substrate peptide (Upstate Inc., cat. #12-440) and 60 μM ATP is then dispensed and the kinase reaction allowed to incubate at 30° C. for 2 hours. The assay plates are sealed and maintained in a humidified environment. After the 2 hour incubation, 2 μl of ADP Quest assay reagent A, followed by 2 μl of assay reagent B, is added. After an additional 30 minute incubation at room temperature, fluorescence intensity is measured on a Molecular Devices Aquest multi-mode plate reader or other suitable plate reader (fluorescence excitation filter: 530/25 [Peak (nm)/FWHM passband (nm)]; dichroic beamsplitter: 561 nm longpass; fluorescence emission filter: 580/10 [Peak (nm)/FWHM passband (nm)]. The assay measures the conversion of a non-fluoresecent molecule to fluorescent resorutin, which correlates with kinase activity. Negative control activity is measured with DMSO lacking any test compound. The positive control is [N-(3-trifluoromethyl-4-chlorophenyl)-N′-(4-(2-methylcarbamoyl-pyridin-4-yl)oxyphenyl)urea], aka Bay 43-9006. Efficacy is measured as a percentage of positive control activity.

[3] = molecular target: T3, VEGFR2 kinase (Homo sapiens, UniProt P35968); assay: In vitro VEGFR2 kinase assay; settings: ADP Quest assay, poly Glu:Tyr substrate, 60 μM ATP
T3 construct: purchased Invitrogen Inc PV3660
Method: as §1, §2

T1 sequence (P15056 416-766): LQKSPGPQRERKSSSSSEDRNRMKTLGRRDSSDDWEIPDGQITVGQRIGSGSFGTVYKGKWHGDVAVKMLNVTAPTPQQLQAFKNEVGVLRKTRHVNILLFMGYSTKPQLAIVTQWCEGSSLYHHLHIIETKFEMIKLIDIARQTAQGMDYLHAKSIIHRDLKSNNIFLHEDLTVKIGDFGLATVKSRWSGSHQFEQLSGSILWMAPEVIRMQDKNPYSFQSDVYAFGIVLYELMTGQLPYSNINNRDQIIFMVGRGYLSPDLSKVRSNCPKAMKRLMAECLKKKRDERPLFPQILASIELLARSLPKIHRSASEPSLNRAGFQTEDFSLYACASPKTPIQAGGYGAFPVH
T3 sequence (P35968 20-1356): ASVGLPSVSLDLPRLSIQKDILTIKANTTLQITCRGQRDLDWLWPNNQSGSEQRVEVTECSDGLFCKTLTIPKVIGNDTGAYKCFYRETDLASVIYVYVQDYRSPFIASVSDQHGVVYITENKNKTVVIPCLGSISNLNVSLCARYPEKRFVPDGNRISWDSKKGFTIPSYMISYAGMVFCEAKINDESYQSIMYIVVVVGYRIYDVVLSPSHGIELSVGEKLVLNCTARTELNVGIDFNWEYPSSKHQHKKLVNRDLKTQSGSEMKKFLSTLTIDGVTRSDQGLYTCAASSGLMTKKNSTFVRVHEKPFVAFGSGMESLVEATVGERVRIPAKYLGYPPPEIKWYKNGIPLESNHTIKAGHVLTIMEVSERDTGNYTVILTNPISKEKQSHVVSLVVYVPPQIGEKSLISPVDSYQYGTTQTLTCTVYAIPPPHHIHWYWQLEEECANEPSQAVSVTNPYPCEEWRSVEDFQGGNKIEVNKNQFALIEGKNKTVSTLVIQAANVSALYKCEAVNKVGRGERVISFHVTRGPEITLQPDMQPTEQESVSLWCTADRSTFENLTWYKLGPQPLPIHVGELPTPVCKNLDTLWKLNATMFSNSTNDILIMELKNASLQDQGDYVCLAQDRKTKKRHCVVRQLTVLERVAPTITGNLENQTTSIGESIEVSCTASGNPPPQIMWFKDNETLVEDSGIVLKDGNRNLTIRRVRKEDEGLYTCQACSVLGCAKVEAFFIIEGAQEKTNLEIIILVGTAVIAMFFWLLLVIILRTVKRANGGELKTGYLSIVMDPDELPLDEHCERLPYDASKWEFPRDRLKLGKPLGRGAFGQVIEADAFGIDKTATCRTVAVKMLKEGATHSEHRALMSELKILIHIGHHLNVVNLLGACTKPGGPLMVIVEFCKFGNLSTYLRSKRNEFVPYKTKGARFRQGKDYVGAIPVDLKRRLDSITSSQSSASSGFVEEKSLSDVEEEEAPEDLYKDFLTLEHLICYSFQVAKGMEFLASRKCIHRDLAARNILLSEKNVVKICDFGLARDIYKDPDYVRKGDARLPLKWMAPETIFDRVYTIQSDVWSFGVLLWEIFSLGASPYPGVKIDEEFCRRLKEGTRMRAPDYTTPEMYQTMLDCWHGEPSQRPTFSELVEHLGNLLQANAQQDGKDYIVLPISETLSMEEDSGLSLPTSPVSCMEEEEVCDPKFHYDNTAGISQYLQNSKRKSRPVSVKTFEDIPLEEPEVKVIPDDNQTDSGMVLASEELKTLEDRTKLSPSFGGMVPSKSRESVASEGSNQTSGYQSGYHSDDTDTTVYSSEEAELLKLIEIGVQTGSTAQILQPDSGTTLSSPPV
T2 sequence (P09619 33-1106): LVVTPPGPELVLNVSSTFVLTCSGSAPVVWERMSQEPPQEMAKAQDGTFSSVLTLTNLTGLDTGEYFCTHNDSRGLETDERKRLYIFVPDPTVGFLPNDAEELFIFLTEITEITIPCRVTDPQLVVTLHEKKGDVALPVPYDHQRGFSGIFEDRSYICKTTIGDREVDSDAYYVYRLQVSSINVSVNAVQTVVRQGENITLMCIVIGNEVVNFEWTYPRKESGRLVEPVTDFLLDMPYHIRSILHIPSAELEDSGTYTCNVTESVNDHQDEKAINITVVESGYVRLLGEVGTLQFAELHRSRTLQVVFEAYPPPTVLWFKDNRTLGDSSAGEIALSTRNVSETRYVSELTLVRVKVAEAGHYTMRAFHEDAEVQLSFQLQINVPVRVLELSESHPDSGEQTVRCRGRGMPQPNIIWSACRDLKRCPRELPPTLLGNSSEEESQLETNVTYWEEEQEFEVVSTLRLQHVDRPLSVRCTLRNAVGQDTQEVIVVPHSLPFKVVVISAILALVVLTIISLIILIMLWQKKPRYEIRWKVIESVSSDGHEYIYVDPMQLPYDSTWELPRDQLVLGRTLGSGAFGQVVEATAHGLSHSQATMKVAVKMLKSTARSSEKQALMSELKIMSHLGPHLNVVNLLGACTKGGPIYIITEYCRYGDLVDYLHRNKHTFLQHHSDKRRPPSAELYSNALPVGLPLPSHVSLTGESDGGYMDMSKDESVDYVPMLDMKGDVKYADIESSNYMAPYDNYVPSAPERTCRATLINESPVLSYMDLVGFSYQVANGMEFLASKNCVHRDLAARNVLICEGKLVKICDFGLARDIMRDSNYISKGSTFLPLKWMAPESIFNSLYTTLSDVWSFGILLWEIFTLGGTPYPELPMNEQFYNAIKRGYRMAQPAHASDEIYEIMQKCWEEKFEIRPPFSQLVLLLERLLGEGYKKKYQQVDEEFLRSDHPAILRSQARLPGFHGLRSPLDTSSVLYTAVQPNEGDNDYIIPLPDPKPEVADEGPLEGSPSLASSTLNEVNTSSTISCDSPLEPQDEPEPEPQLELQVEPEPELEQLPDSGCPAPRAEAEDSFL

| Structure (SMILES) | IC50 [1] [µM] | IC50 [2] [µM] | IC50 [3] [µM] |
| --- | --- | --- | --- |
| O=C(Nc1ccc(Oc2cc(-n3cncn3)ncn2)cc1)Nc1ccc(Cl)c(C(F)(F)F)c1 [Example 1, 1-(4-Chloro-3-trifluoromethyl-phenyl)-3-[4-(6-[1,2,4]triazol-1-yl-pyrimidin-4-yloxy)-phenyl]-urea] | ≤ 10 | ≤ 10 | ≤ 10 |
| O=C(Nc1ccc(Oc2ccnc(-n3cncn3)n2)cc1)Nc1ccc(Cl)c(C(F)(F)F)c1 [Example 2, 1-(4-Chloro-3-trifluoromethyl-phenyl)-3-[4-(2-[1,2,4]triazol-1-yl-pyrimidin-4-yloxy)-phenyl]-urea] | > 10 | > 10 | > 10 |
| O=C(Nc1ccc(Oc2cc(-c3ncon3)ncn2)cc1)Nc1ccc(Cl)c(C(F)(F)F)c1 [Example 3, 1-(4-Chloro-3-trifluoromethyl-phenyl)-3-[4-(6-[1,2,4]oxadiazol-3-yl-pyrimidin-4-yloxy)-phenyl]-urea] | > 10 | ≤ 10 | ≤ 10 |
| COc1cc(CNC(=O)Nc2cccc(Oc3ccnc(-c4nnco4)c3)c2)cc(OC)c1OC [Example 5, 1-[3-(2-[1,3,4]Oxadiazol-2-yl-pyridin-4-yloxy)-phenyl]-3-(3,4,5-trimethoxybenzyl)-urea] | ≤ 10 | > 10 | ≤ 10 |
| Cc1cc(Oc2ccc(NC(=O)Nc3ccc(Cl)c(C(F)(F)F)c3)cc2)nc(-n2ccnc2)n1 [Example 6, 1-(4-(2-(1H-imidazol-1-yl)-6-methylpyrimidin-4-yloxy)phenyl)-3-(4-chloro-3-(trifluoromethyl)phenyl)urea] | ≤ 10 | > 10 | > 10 |
| O=C(Nc1ccc(Oc2ccnc(-c3ncon3)n2)cc1)Nc1ccc(Cl)c(C(F)(F)F)c1 [Example 7, 1-(4-(2-(1,2,4-Oxadiazol-3-yl)pyrimidin-4-yloxy)phenyl)-3-(4-chloro-3-(trifluoromethyl)phenyl)urea] | > 10 |  |  |
| O=C(Nc1ccc(Oc2cc(-c3nnco3)ncn2)cc1)Nc1ccc(Cl)c(C(F)(F)F)c1 [Example 8, 1-(4-(6-(1,3,4-Oxadiazol-2-yl)pyrimidin-4-yloxy)phenyl)-3-(4-chloro-3-(trifluoromethyl)phenyl)urea] | ≤ 10 | ≤ 10 | ≤ 10 |
| O=C(Nc1cccc(Oc2cc(-c3nnco3)ncn2)c1)Nc1ccc(Cl)c(C(F)(F)F)c1 [Example 9, 1-(3-(6-(1,3,4-Oxadiazol-2-yl)pyrimidin-4-yloxy)phenyl)-3-(4-chloro-3-(trifluoromethyl)phenyl)urea] | ≤ 10 | ≤ 10 | ≤ 10 |
| O=C(Nc1cccc(Oc2cc(-c3ncon3)ncn2)c1)Nc1ccc(Cl)c(C(F)(F)F)c1 [Example 10, 1-(3-(6-(1,2,4-Oxadiazol-3-yl)pyrimidin-4-yloxy)phenyl)-3-(4-chloro-3-(trifluoromethyl)phenyl)urea] | ≤ 10 | ≤ 10 | ≤ 10 |
| Cc1nnc(-c2cc(Oc3cccc(NC(=O)Nc4ccc(Cl)c(C(F)(F)F)c4)c3)ncn2)o1 [Example 11, 1-(4-Chloro-3-(trifluoromethyl)phenyl)-3-(3-(6-(5-methyl-1,3,4-oxadiazol-2-yl)pyrimidin-4-yloxy)phenyl)urea] | ≤ 10 | ≤ 10 | ≤ 10 |
| O=C(Nc1cccc(Oc2ccnc(-c3nnco3)n2)c1)Nc1ccc(Cl)c(C(F)(F)F)c1 [Example 12, 1-(3-(2-(1,3,4-oxadiazol-2-yl)pyrimidin-4-yloxy)phenyl)-3-(4-chloro-3-(trifluoromethyl)phenyl)urea] | ≤ 10 | ≤ 10 | ≤ 10 |
| O=C(Nc1ccc(Oc2cc(-c3ncco3)ncn2)cc1)Nc1ccc(Cl)c(C(F)(F)F)c1 [Example 13, 1-(4-Chloro-3-(trifluoromethyl)phenyl)-3-(4-(6-(oxazol-2-yl)pyrimidin-4-yloxy)phenyl)urea] | ≤ 10 | ≤ 10 | ≤ 10 |
| O=C(Nc1cccc(Oc2cc(-c3ncco3)ncn2)c1)Nc1ccc(Cl)c(C(F)(F)F)c1 [Example 14, 1-(4-chloro-3-(trifluoromethyl)phenyl)-3-(3-(6-(oxazol-2-yl)pyrimidin-4-yloxy)phenyl)urea] | ≤ 10 | ≤ 10 | ≤ 10 |
| O=C(Nc1cccc(Oc2cc(-c3ncno3)ncn2)c1)Nc1ccc(Cl)c(C(F)(F)F)c1 [Example 15, 1-(3-(6-(1,2,4-oxadiazol-5-yl)pyrimidin-4-yloxy)phenyl)-3-(4-chloro-3-(trifluoromethyl)phenyl)urea] | ≤ 10 | ≤ 10 | ≤ 10 |
| Cn1ncnc1-c1cc(Oc2cccc(NC(=O)Nc3ccc(Cl)c(C(F)(F)F)c3)c2)ncn1 [Example 16, 1-(4-Chloro-3-(trifluoromethyl)phenyl)-3-(3-(6-(1-methyl-1H-1,2,4-triazol-5-yl)pyrimidin-4-yloxy)phenyl)urea] | ≤ 10 | ≤ 10 | ≤ 10 |
| O=C(Nc1cccc(Oc2cc(-c3ncn[nH]3)ncn2)c1)Nc1ccc(Cl)c(C(F)(F)F)c1 [Example 17, 1-(3-(6-(1H-1,2,4-Triazol-5-yl)pyrimidin-4-yloxy)phenyl)-3-(4-chloro-3-(trifluoromethyl)phenyl)urea] | ≤ 10 | ≤ 10 | ≤ 10 |
| O=C(Nc1ccc(Oc2cc(-c3ncno3)ncn2)cc1)Nc1ccc(Cl)c(C(F)(F)F)c1 [Example 18, 1-(4-(6-(1,2,4-Oxadiazol-5-yl)pyrimidin-4-yloxy)phenyl)-3-(4-chloro-3-(trifluoromethyl)phenyl)urea] | > 10 | ≤ 10 | ≤ 10 |
| O=C(Nc1cccc(Oc2cc(-c3nnn[nH]3)ncn2)c1)Nc1ccc(Cl)c(C(F)(F)F)c1 [Example 19, 1-(3-(6-(1H-Tetrazol-5-yl)pyrimidin-4-yloxy)phenyl)-3-(4-chloro-3-(trifluoromethyl)phenyl)urea] | > 10 | ≤ 10 | ≤ 10 |
| Cn1nnc(-c2cc(Oc3cccc(NC(=O)Nc4ccc(Cl)c(C(F)(F)F)c4)c3)ncn2)n1 [Example 20, 1-(4-Chloro-3-(trifluoromethyl)phenyl)-3-(3-(6-(2-methyl-2H-tetrazol-5-yl)pyrimidin-4-yloxy)phenyl)urea] | ≤ 10 | ≤ 10 | ≤ 10 |
| Cn1nnnc1-c1cc(Oc2cccc(NC(=O)Nc3ccc(Cl)c(C(F)(F)F)c3)c2)ncn1 [Example 21, 1-(4-chloro-3-(trifluoromethyl)phenyl)-3-(3-(6-(1-methyl-1H-tetrazol-5-yl)pyrimidin-4-yloxy)phenyl)urea] | ≤ 10 | ≤ 10 | ≤ 10 |
| O=C(Nc1ccc(Oc2cc(-c3ncn[nH]3)ncn2)cc1)Nc1ccc(Cl)c(C(F)(F)F)c1 [Example 22, 1-(4-(6-(1H-1,2,4-Triazol-5-yl)pyrimidin-4-yloxy)phenyl)-3-(4-chloro-3-(trifluoromethyl)phenyl)urea] | ≤ 10 | ≤ 10 | ≤ 10 |
| Cn1ncnc1-c1cc(Oc2ccc(NC(=O)Nc3ccc(Cl)c(C(F)(F)F)c3)cc2)ncn1 [Example 23, 1-(4-Chloro-3-(trifluoromethyl)phenyl)-3-(4-(6-(1-methyl-1H-1,2,4-triazol-5-yl)pyrimidin-4-yloxy)phenyl)urea] | ≤ 10 | ≤ 10 | ≤ 10 |
| NC(=O)Cn1cc(-c2cc(Oc3cccc(NC(=O)Nc4ccc(Cl)c(C(F)(F)F)c4)c3)ncn2)cn1 [Example 55, 2-(4-(6-(3-(3-(4-Chloro-3-(trifluoromethyl)phenyl)ureido)phenoxy)pyrimidin-4-yl)-1H-pyrazol-1-yl)acetamide] | ≤ 10 |  | ≤ 10 |
